Tested on: HeLa cells
Assay: Inhibition of HeLa cell growth monitored by resonant sensor frequency shift and microscope images
Assay type: cell-based
Settings: Niclosamide at 15 μM in culture media
Procedure: To investigate the inhibition effect of cell growth on the sensor response, HeLa cells were first grown until a drastic resonant frequency shift was observed. FIG. 11 is a plot of resonant frequency as a function of time shown as curve 537. Four times are identified as 5, 6, 7, and 8. FIG. 12 is a cell image at time 5 of FIG. 11. Niclosamide was introduced at time 6 of FIG. 11 into the culture media at 15 μM. […] FIG. 13 is a cell image at time 6 of FIG. 11. FIG. 14 is a cell image at time 7 of FIG. 11. FIG. 15 is a cell image at time 8 of FIG. 11.

SMILES: O=C(Nc1ccc([N+](=O)[O-])cc1Cl)c1cc(Cl)ccc1O [Niclosamide]
- resonant frequency shift of sensor after introducing drug (HeLa cells grown until drastic resonant frequency shift): almost an instantaneous stop in the resonant frequency shift
- cell growth after introducing the drug (microscopic images) (HeLa cells): stop of cell growth

Source: patent publication US20260023004A1, “SIGNAL ENHANCEMENT OF RESONANT SENSOR FOR CELL MEASUREMENTS” (lowa State University Research Foundation, Inc., priority 2022, published 2026)
